# Measurements reported in US11390631B1, “Benzodiazepine derivatives as RSV inhibitors” (priority 2015, dated 2022).
# pEC50: −log10 of the molar value. Like-named read-outs stand apart in the source and are kept apart here.
# Tested on: Human RSV-A (“Long” strain)
# Experiment: RSV-A assay: inhibition of cytopathic effect in Hep-2 cells, ATPlite readout
# Assay type: cell-based, Human respiratory syncytial virus (HRSV)
# Settings: read-out: Human RSV-A (“Long” strain) EC50
# Text: Hep-2 cells, (originally derived from tumors grown in irradiated-cortisonised weanling rats that had been injected with epidermoid carcinoma tissue from a person's larynx, but later found to be indistinguishable from HeLa cells by PCR DNA analysis), were used for the culturing of genotype A, “Long” strain RSV. Flasks were inoculated with RSV and viral stocks were collected once cytopathic effect (CPE) was greater than 90%. Viral stocks in 25% sucrose media were snap frozen using liquid nitrogen to increase viral stability. Viral stock titers were quantified by tissue culture infectious dose 50% (TCID50) using 8,000 cells per well and 3-fold viral dilutions across a 96-well plate, cultured for 4 days. Viral stock titers were also quantified by a plaque forming unit assay, as described elsewhere.
# Following extensive parameter testing, the final assay is run as follows: Hep-2 cells are seeded into the inner 60 wells of a 96-well plate at 8,000 cells per well in a volume of 50 μL using Growth Media (DMEM without phenol red, 1% L-Glut, 1% Penn/Strep, 1% nonessential amino acids, 10% heat-inactivated FBS). 2-fold serial dilutions of control and test compounds are added to the wells in duplicate in a total volume of 25 μL. Viral stock is then added to the wells at a multiplicity of infection (MOI) of 0.1 in a volume of 25 μL, bringing the total volume of each well to 100 μL. The MOI is calculated using the PFU/mL, or TCID50 if unavailable. Each 96-well plate has a control column of 6 wells with cells and virus but no compound (negative control, max CPE), a column with cells but no compound or virus (positive control, minimum CPE), and a column with no cells or virus or compound (background plate/reagent control). The control wells with cells but no virus are given an additional 25 uL of growth media containing an equal quantity of sucrose as those wells receiving the viral stock in order to keep consistent in media and volume conditions. The outer wells of the plate are filled with 125 μL of moat media (DMEM, 1% Penn/Strep) to act as a thermal and evaporative moat around the test wells. Following a 5-day incubation period, the plates are read using ATPlite (50 uL added per well), which quantifies the amount of ATP (a measure of cell health) present in each well. Assay plates are read using the Envision luminometer. In parallel, cytotoxicity is examined on an additional 96-well plate treated in an identical manner, but substituting the 25 μL of viral stock for 25 μL of growth media. […] EC50 ranges are as follows: A<0.4 μM; B 0.4-0.8 μM; C>0.8 μM and CC50 ranges are as follows: A>50 μM; B 10-50 μM; C<10 μM.
# [1] = human respiratory syncytial virus, HEp-2, 120 h
# [2] = Hep-2 cells, MOI 0.1, 5-day incubation, ATPlite
Structure (SMILES),pEC50 [1],pEC50 [2]
"Cc1nc(-c2nnc(N[C@H]3N=C(c4ccccc4)c4ccccc4NC3=O)o2)c(C2CCOCC2)s1 [Example 346, (S)-3-((5-(2-methyl-5-(tetrahydro-2H-pyran-4-yl)thiazol-4-yl)-1,3,4-oxadiazol-2-yl)amino)-5-phenyl-1,3-dihydro-2H-benzo[e][1,4]diazepin-2-one]",> 6.40,
O=C1Nc2ccccc2C(c2ccccc2)=N[C@@H]1Nc1nnc(-c2ncc(C(F)(F)F)cc2NC[C@H]2CCCO2)o1 [Example 420],> 6.40,
COc1ccc(CN2C(=O)C(C)(N)N=C(c3ccccc3)c3ccccc32)cc1 (stereo not shown) [Example 102],< 6.10,
CN1CCN(c2ccc(-c3nnc(NC4N=C(c5ccccc5)c5ccccc5NC4=O)o3)cc2)CC1 (stereo not shown) [Example 210],< 6.10,
O=C1Nc2ccccc2C(c2ccccc2)=N[C@@H]1Nc1nnc(-c2nc(C(F)(F)F)sc2N[C@@H]2CCOC2)o1 [Example 474],> 6.40,
O=C1Nc2ccccc2C(c2ccccc2)=NC1Nc1nnc(-c2cccnc2N2CC(F)(F)C2)o1 (stereo not shown) [Example 259],< 6.10,
O=C1Nc2ccccc2C(c2ccccc2)=N[C@@H]1Nc1nnc(-c2ncc(C(F)(F)F)cc2-c2ccncc2)o1 [Example 282],< 6.10,
O=C1Nc2ccccc2C(c2ccccc2)=NC1Nc1nnc(-c2ccccc2C2CCOCC2)o1 (stereo not shown) [Example 354],< 6.10,
COc1cc(-c2nnc(NC3N=C(c4ccccc4)c4ccccc4NC3=O)o2)ccc1-n1cnc(C)c1 (stereo not shown) [Example 219],< 6.10,
COC1CCN(c2ncccc2-c2nnc(NC3N=C(c4ccccc4)c4ccccc4NC3=O)o2)CC1 (stereo not shown) [Example 254],< 6.10,
O=C1Nc2ccccc2C(c2ccccc2)=NC1Nc1nnc(-c2ccc(-n3ccnc3)cc2)o1 (stereo not shown) [Example 231],> 6.40,
O=C1Nc2ccccc2C(c2ccccc2)=N[C@@H]1Nc1nnc(-c2oc3cc(F)ccc3c2N2CCOCC2)o1 [Example 476],6.10 to 6.40,
O=C1Nc2ccccc2C(c2ccccc2)=N[C@H]1Nc1nnc(-c2ccc(N3CCOCC3)cc2F)o1 [Example 126b],< 6.10,
COc1cnc(-c2nnc(NC3N=C(c4ccccc4)c4ccccc4NC3=O)o2)c(F)c1 (stereo not shown) [Example 185],< 6.10,
O=C1Nc2ccccc2C(c2ccccc2)=NC1Nc1nnc(C2CCOC2)o1 (stereo not shown) [Example 215],< 6.10,
O=C1Nc2ccccc2C(c2ccccc2)=N[C@@H]1Nc1nnc(-c2ccccc2N2CCOCC2)o1 [Example 125a],> 6.40,
Cc1nc(-c2nnc(N[C@H]3N=C(c4ccccc4)c4ccccc4NC3=O)o2)cs1 [Example 343],< 6.10,
O=C1Nc2ccccc2C(c2ccccc2)=N[C@H]1Nc1nnc(-c2ccc(N3CCOCC3)cc2)o1 [Example 124b],< 6.10,
O=C1Nc2ccccc2C(c2ccccc2)=N[C@@H]1Nc1nnc(-c2ccc(N3CCOCC3)cc2F)o1 [Example 126a],> 6.40,
O=C1Nc2ccccc2C(c2ccc(F)cc2)=NC1Nc1nnc(-c2ccc(F)cc2)o1 (stereo not shown) [Example 382],< 6.10,
O=C1Nc2ccccc2C(c2ccccc2)=NC1Nc1nnc(-c2ccc(NC3CCCCC3)cc2)o1 (stereo not shown) [Example 116],< 6.10,
O=C1Nc2ccccc2C(c2ccccc2)=NC1Nc1nnc(-c2ccc(N3CCOCC3)cc2)o1 (stereo not shown) [Example 124a],> 6.40,
"O=C1Nc2ccccc2C(c2ccccc2)=N[C@H]1Nc1nnc(-c2nc(C(F)(F)F)sc2N2CCO[C@H]3C[C@H]32)o1 (single isomer, unassigned) [Example 485]",,< 6.10
O=C1Nc2ccccc2C(c2ccccc2)=NC1Nc1ccc(-c2ccccc2N2CCOCC2)nn1 (stereo not shown) [Example 378],< 6.10,
O=C1Nc2ccccc2C(c2ccccc2)=NC1Nc1ncc(-c2ccc(Br)cc2)o1 (stereo not shown) [Example 370],< 6.10,
O=C1Nc2ccccc2C(c2ccccc2)=N[C@@H]1Nc1nnc(-c2cn(-c3ccccn3)nc2N2CCOCC2)o1 [Example 431],> 6.40,
O=C1Nc2ccccc2C(c2ccccc2)=N[C@@H]1Nc1nnc(-c2nc(C(F)(F)C(F)(F)F)sc2N2CCOCC2)o1 [Example 454],> 6.40,
O=C1Nc2ccccc2C(c2ccccc2)=N[C@@H]1Nc1nnc(-c2cn(CC3CC3)nc2N2CCOCC2)o1 [Example 446],,> 6.40
